Assay results reported in patent US20050282910A1, “Methods of application of chemical compounds having therapeutic activities in treating cancers” (priority 2003, published 2005).
Values after ≈ are worked out from the molar mass of the structure shown. Like-named read-outs stand apart in the source and are kept apart here.

Legend:
[1] = tested on: human leukemia MDR cell line K562/adr; test: Reversal of P-glycoprotein-mediated drug resistance by Schisandrin A, Schisandrol A, Schisantherin A, MTT cytotoxicity of anticancer agents; assay type: cell-based; conditions: for IC50: Homo sapiens; for IC50 (ng/ml) +Schisandrin A: anticancer agent in the presence of Schisandrin A (10 μg/ml); for IC50 (ng/ml) +Schisantherin A: anticancer agent in the presence of Schisantherin A (10 μg/ml)
Description: Assays were carried out in triplicate against human leukemia MDR cell line K562/adr, human breast cancer MDR cell line MCF7/adr, and human epidermoid carcinoma MDR cell line KBv200.

[2] = tested on: human breast cancer MDR cell line MCF7/adr; test: cells; conditions: NCI/ADR-RES, 72 h
[3] = tested on: human epidermoid carcinoma MDR cell line KBv200; test: cells; conditions: KBv200, 72 h
MCF7/adr = test: Reversal of drug resistance by ethanol extracts of Schisandra chinensis fruit, MTT cytotoxicity of anticancer agents; conditions: for IC50: Homo sapiens, NCI/ADR-RES, 72 h, read-out: IC50 (ng/ml) −ethanol extract; for IC50 (ng/ml) +ethanol extract: anticancer agent in the presence of ethanol extracts (50 μg/ml), 72 hours
K562/adr = test: as above; assay type: cell-based, human; conditions: for IC50 (ng/ml) +ethanol extract: anticancer agent in the presence of ethanol extracts (50 μg/ml)
Description: Assays were carried out in triplicate against human MDR cancer cell lines K562/adr, KBv200, and MCF7/adr. […] Alternatively, flow cytometry assays using FACS Calibur equipped with software Cellquest 3.1f (Becton-Dickinson, Holbrook, N.J.) were applied to count the cell numbers in each sample.

[4] = tested on: human breast cancer MDR cell line MCF7/adr; conditions: for IC50 (ng/ml) +Schisandrin A: anticancer agent in the presence of Schisandrin A (10 μg/ml); for IC50 (ng/ml) +Schisandrin A / IC50 (ng/ml) +Schisantherin A: 72 hours; for IC50 (ng/ml) +Schisantherin A: anticancer agent in the presence of Schisantherin A (10 μg/ml)
HL60/adr = test: Reversal of MRP1-mediated drug resistance, MTT cytotoxicity of anticancer agents; assay type: cell-based, human; conditions: for IC50 (ng/ml) +Schisandrin B: anticancer agent in the presence of Schisandrin B (10 μg/ml); for IC50: Homo sapiens, HL60/ADR, 72 h; for drug sensitivity of HL60/adr toward the anticancer agents (in words): compound 10 μg/ml
Description: Assays were carried out in triplicate against MDR cancer cell HL60/adr. MTT assays as described previously (X.

[5] = tested on: human epidermoid carcinoma MDR cell line KBv200; conditions: for IC50 (ng/ml) +Schisandrin A: anticancer agent in the presence of Schisandrin A (10 μg/ml); for IC50 (ng/ml) +Schisandrin A / IC50 (ng/ml) +Schisantherin A: 72 hours; for IC50 (ng/ml) +Schisantherin A: anticancer agent in the presence of Schisantherin A (10 μg/ml)
KBv200 = test: Reversal of drug resistance by ethanol extracts of Schisandra chinensis fruit, MTT cytotoxicity of anticancer agents; conditions: Homo sapiens, KBv200, 72 h, read-out: IC50 (ng/ml) −ethanol extract
SMMC7721 = test: Enhancement of anticancer agent-induced apoptosis and necrosis, Anexin V-FITC/PI; assay type: cell-based, human; conditions: 48 hours; for Apoptotic(%) / Necrotic(%): doxorubicin 0.5 μg/ml
Description: (§1) To illustrate the activities of Schisandrin B or its analogs enhancing the apoptosis of cancer cells induced by an anticancer agent according to the present disclosure, human cancer cell line SMMC7721, a non-drug-resistant hepatic cancer cell line, and MCF7, a non-drug-resistant breast cancer cell line, were selected for use. Assays were carried out in triplicates against SMMC7721 or MCF7. […] Cells were collected and the apoptotic cells and necrotic cell percentages were determined using Anexin V-FITC/PI kit (Sigma, St. Louis, Mo., USA) according to manufacturer's instructions. Alternatively, the apoptotic and necrotic cell percentages were measured using DNA Plus kit (Becton-Dickinson, USA) according to the manufacturer's instructions.

MCF7 = test: as above; assay type: cell-based, human; conditions: 48 hours; for Apoptotic + necrotic (%): MCF7, doxorubicin 0.5 μg/ml, Schisandrin B 20 μg/ml
Description: as §1

MRP1 = target: T1, MRP1 (Homo sapiens, UniProt P33527); test: Daunorubicin accumulation in HL60/adr cells (MRP1-mediated drug efflux), flow cytometry; assay type: cell-based; conditions: 2 μg/ml daunorubicin
T1 construct: human cancer cell line HL60/adr, an MDR cell line characterized by MRP1 overexpression; endogenous in cells; host or cells: HL60/adr (human MDR cancer cell line)
Description: MRP1 functions as a drug pump that unilaterally pumps the anticancer agents out of MDR cancer cells. Inhibition of MRP1 results in an increase of intracellular drug concentration within cancer cells.

[6] = read-out: IC50 (ng/ml) −Schisandrin A
[7] = read-out: IC50 (ng/ml) −Schisantherin A
[8] = HL60/adr, by Schisandrin B (10 μg/ml)
[9] = HL60/adr, anticancer agent in the absence of Schisandrin B, 72 hours, read-out: IC50 (ng/ml) −Schisandrin B
[10] = SMMC7721, Schisandrin B 20 μg/ml
[11] = Schisandrin B 20 μg/ml with doxorubicin 0.5 μg/ml

T1 sequence (P33527 whole entry): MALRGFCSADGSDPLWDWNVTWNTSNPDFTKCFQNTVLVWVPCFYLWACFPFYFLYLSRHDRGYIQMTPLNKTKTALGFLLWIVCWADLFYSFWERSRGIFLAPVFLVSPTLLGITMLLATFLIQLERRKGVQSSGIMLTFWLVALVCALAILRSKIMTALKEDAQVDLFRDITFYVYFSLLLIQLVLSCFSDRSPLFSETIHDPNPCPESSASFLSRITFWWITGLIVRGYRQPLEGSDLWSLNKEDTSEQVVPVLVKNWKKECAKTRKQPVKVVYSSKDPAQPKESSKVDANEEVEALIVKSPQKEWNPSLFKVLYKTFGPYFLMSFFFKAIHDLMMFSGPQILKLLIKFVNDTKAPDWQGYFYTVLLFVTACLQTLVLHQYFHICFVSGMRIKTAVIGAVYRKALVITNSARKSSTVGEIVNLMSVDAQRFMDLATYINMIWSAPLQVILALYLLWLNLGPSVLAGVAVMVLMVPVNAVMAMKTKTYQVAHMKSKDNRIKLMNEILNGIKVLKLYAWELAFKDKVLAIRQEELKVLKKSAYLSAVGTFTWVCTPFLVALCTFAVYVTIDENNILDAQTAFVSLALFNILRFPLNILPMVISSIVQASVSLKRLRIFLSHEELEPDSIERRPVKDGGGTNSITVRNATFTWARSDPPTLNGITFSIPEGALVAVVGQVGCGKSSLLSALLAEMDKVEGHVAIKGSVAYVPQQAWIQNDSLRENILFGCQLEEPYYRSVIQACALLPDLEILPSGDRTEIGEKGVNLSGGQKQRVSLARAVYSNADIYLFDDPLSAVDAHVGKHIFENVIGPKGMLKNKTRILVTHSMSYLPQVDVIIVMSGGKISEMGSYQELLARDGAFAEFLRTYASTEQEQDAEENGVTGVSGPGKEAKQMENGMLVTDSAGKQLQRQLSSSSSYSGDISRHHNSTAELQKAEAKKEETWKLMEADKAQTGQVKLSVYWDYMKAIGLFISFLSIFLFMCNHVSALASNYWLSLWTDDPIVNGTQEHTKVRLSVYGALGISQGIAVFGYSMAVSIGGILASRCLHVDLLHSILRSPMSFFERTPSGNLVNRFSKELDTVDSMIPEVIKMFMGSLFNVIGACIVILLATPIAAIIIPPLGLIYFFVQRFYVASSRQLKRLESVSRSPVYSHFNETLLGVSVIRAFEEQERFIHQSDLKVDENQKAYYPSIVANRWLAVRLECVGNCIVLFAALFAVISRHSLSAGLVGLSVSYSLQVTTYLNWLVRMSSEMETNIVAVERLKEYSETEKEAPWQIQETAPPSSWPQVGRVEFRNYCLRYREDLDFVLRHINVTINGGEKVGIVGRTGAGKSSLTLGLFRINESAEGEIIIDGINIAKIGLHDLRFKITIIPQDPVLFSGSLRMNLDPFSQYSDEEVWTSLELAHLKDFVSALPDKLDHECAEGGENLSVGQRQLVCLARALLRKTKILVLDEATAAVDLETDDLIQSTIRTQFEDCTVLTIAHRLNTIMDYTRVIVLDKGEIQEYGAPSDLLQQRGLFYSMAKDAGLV

## CC(=O)O[C@H]1C(=O)[C@@]2(C)[C@H]([C@H](OC(=O)c3ccccc3)[C@]3(O)C[C@H](OC(=O)[C@H](O)[C@@H](NC(=O)c4ccccc4)c4ccccc4)C(C)=C1C3(C)C)[C@]1(OC(C)=O)CO[C@@H]1C[C@@H]2O [Taxol]
[1]; K562/Adr, 72 h, K562/adr, anticancer agent in the absence of Schisandrin A, 72 hours, read-out: IC50 (ng/ml) −Schisandrin A
  IC50: 38 ± 11 ng/mL
[1]; K562/Adr, 72 h, K562/adr, anticancer agent in the absence of Schisantherin A, 72 hours, read-out: IC50 (ng/ml) −Schisantherin A
  IC50: 38 ± 12 ng/mL
[1]; K562/adr, 72 hours
  IC50 (ng/ml) +Schisandrin A: 6.4 ± 3.2 ng/mL
  IC50 (ng/ml) +Schisantherin A: 1.1 ± 1.0 ng/mL
[1]; K562/adr, by Schisandrin A (10 μg/ml)
  RF (reversal folds of drug resistance): 5.9
[1]; K562/adr, by Schisantherin A (10 μg/ml)
  RF (reversal folds of drug resistance): 34.5
[2]; [6]
  IC50: 40.5 ± 11 ng/mL (≈ 0.0474 µM)
[2]; [7]
  IC50: 40.6 ± 20.3 ng/mL (≈ 0.0475 µM)
[3]; [6]
  IC50: 20.2 ± 2.8 ng/mL (≈ 0.0237 µM)
[3]; [7]
  IC50: 20.2 ± 3.8 ng/mL (≈ 0.0237 µM)
MCF7/adr
  IC50: 73 ± 27 ng/mL
MCF7/adr; MCF7/adr
  IC50 (ng/ml) +ethanol extract: 25 ± 12 ng/mL
MCF7/adr; MCF7/adr, by ethanol extracts (50 μg/ml)
  RF (reversal folds of drug resistance): 2.9
K562/adr; Homo sapiens, anticancer agent in the absence of ethanol extracts, 72 hours, read-out: IC50 (ng/ml) −ethanol extract
  IC50: 110 ± 20 ng/mL
K562/adr; 72 hours
  IC50 (ng/ml) +ethanol extract: 41 ± 24 ng/mL
K562/adr; by ethanol extracts (50 μg/ml)
  RF (reversal folds of drug resistance): 2.7
[4]
  IC50 (ng/ml) +Schisandrin A: 6.1 ± 1.9 ng/mL
  IC50 (ng/ml) +Schisantherin A: 6.3 ± 3.1 ng/mL
[4]; by Schisandrin A (10 μg/ml)
  RF (reversal folds of drug resistance): 6.6
[4]; by Schisantherin A (10 μg/ml)
  RF (reversal folds of drug resistance): 6.4
HL60/adr; HL60/adr, anticancer agent in the presence of Schisandrin A (10 μg/ml), 72 hours
  IC50 (ng/ml) +Schisandrin A: 4.1 ± 1.4 ng/mL
HL60/adr; HL60/adr, 72 hours
  IC50 (ng/ml) +Schisandrin B: <1 ng/mL
HL60/adr; HL60/adr, anticancer agent in the presence of Schisantherin A (10 μg/ml), 72 hours
  IC50 (ng/ml) +Schisantherin A: 4.3 ± 1.4 ng/mL
HL60/adr; HL60/adr, by Schisandrin A (10 μg/ml)
  RF (reversal folds of drug resistance): 7.8
HL60/adr; [8]
  RF (reversal folds of drug resistance): >3
HL60/adr; HL60/adr, by Schisantherin A (10 μg/ml)
  RF (reversal folds of drug resistance): 7.4
HL60/adr; HL60/adr, anticancer agent in the absence of Schisandrin A, 72 hours, read-out: IC50 (ng/ml) −Schisandrin A
  IC50: 32 ± 9 ng/mL
HL60/adr; [9]
  IC50: 3 ng/mL
HL60/adr; HL60/adr, anticancer agent in the absence of Schisantherin A, 72 hours, read-out: IC50 (ng/ml) −Schisantherin A
  IC50: 32 ± 9 ng/mL
[5]
  IC50 (ng/ml) +Schisandrin A: 1.91 ± 1.2 ng/mL
  IC50 (ng/ml) +Schisantherin A: 2.4 ± 0.7 ng/mL
[5]; by Schisandrin A (10 μg/ml)
  RF (reversal folds of drug resistance): 10.6
[5]; by Schisantherin A (10 μg/ml)
  RF (reversal folds of drug resistance): 8.4

## COc1cccc2c1C(=O)c1c(O)c3c(c(O)c1C2=O)C[C@@](O)(C(C)=O)C[C@@H]3O[C@H]1C[C@H](N)[C@H](O)[C@H](C)O1 [Daunorubicin]
[1]; K562/adr, anticancer agent in the absence of Schisandrin A, 72 hours, read-out: IC50 (ng/ml) −Schisandrin A
  IC50: 4780 ± 1380 ng/mL
[1]; K562/adr, anticancer agent in the absence of Schisantherin A, 72 hours, read-out: IC50 (ng/ml) −Schisantherin A
  IC50: 1300 ± 293 ng/mL
[1]; K562/adr, 72 hours
  IC50 (ng/ml) +Schisandrin A: 67.2 ± 21.3 ng/mL
  IC50 (ng/ml) +Schisantherin A: 71 ± 22 ng/mL
[2]; [6]
  IC50: 2560 ± 413 ng/mL (≈ 4.85 µM)
[2]; [7]
  IC50: 812 ± 193 ng/mL (≈ 1.54 µM)
KBv200
  IC50: 20 ± 8 ng/mL
[3]; [6]
  IC50: 26.9 ± 8.1 ng/mL (≈ 0.051 µM)
[3]; [7]
  IC50: 26.9 ± 4.3 ng/mL (≈ 0.051 µM)
MCF7/adr
  IC50: 320 ± 71 ng/mL
MCF7/adr; MCF7/adr
  IC50 (ng/ml) +ethanol extract: 31 ± 10 ng/mL
K562/adr; 72 hours
  IC50 (ng/ml) +ethanol extract: 150 ± 19 ng/mL
[4]
  IC50 (ng/ml) +Schisandrin A: 245 ± 46 ng/mL
  IC50 (ng/ml) +Schisantherin A: 58.8 ± 21 ng/mL
[5]
  IC50 (ng/ml) +Schisandrin A: 2.47 ± 0.9 ng/mL
  IC50 (ng/ml) +Schisantherin A: 3.4 ± 1.3 ng/mL

## COc1cccc2c1C(=O)c1c(O)c3c(c(O)c1C2=O)C[C@@](O)(C(=O)CO)C[C@@H]3O[C@H]1C[C@H](N)[C@H](O)[C@H](C)O1 [doxorubicin]
[1]; K562/Adr, read-out: IC50 of doxorubicin toward K562/adr, in the absence of Schisandrol A
  IC50: 875 ± 248 ng/mL
[1]; K562/Adr, read-out: IC50 of doxorubicin toward K562/adr, in the presence of Schisandrol A (10 μg/ml)
  IC50: 168 ± 43 ng/mL
SMMC7721; [10]
  Apoptotic(%): 5.2 ± 2.6%
  Necrotic(%): 16.5 ± 4.3%
MCF7
  Apoptotic + necrotic (%): 7.2 ± 0.8%

## O=C1c2c(O)ccc(O)c2C(=O)c2c(NCCNCCO)ccc(NCCNCCO)c21 [Mitoxantrone]
HL60/adr; HL60/adr, 72 hours
  IC50 (ng/ml) +Schisandrin B: <1 ng/mL
HL60/adr; [8]
  RF (reversal folds of drug resistance): >68
HL60/adr; [9]
  IC50: 68 ng/mL

## COc1cc([C@@H]2c3cc4c(cc3[C@@H](O[C@@H]3O[C@@H]5CO[C@@H](C)O[C@H]5[C@H](O)[C@H]3O)[C@H]3COC(=O)[C@H]23)OCO4)cc(OC)c1O [VP-16]
HL60/adr; HL60/adr, anticancer agent in the absence of Schisandrin B, 72 hours
  IC50 (ng/ml) −Schisandrin B: >10000 ng/mL
HL60/adr; HL60/adr, 72 hours
  IC50 (ng/ml) +Schisandrin B: 1490 ± 213 ng/mL
HL60/adr; [8]
  RF (reversal folds of drug resistance): >6.7

## COc1cc2c(c(OC)c1OC)-c1c(cc(OC)c(OC)c1OC)C[C@H](C)[C@H](C)C2 [Schisandrin A]
[1]; FIG. 3
  sensitivity of MDR cancer cell K562/adr to daunorubicin (in words): increase the sensitivity
[1]; Schisandrin A 1 μg/ml, FIG. 3
  increase of sensitivity of K562/adr to daunorubicin: about 8 folds
[1]; Schisandrin A 10 μg/ml, FIG. 3
  increase of sensitivity of K562/adr to daunorubicin: ~71 folds
[1]; Schisandrin A 20 μg/ml, FIG. 3
  increase of sensitivity of K562/adr to daunorubicin: ~100 folds
MRP1; 60 minutes, FIG. 7
  daunorubicin accumulation within HL60/adr cells (in words): increased with the increasing concentration
HL60/adr
  drug sensitivity of HL60/adr toward the anticancer agents (in words): enhanced

## COc1cc2c(c(OC)c1OC)-c1c(cc3c(c1OC)OCO3)C[C@@H](C)[C@@H](C)C2 [Schisandrin B]
MRP1; 90 minutes, FIG. 6
  daunorubicin accumulation within HL60/adr cells (in words): increased proportionately with increasing concentration
MRP1; Schisandrin B 20 μg/ml, 90 minutes, FIG. 6
  daunorubicin accumulation in HL60/adr cells versus absence of Schisandrin B: 4 folds
SMMC7721; [10]
  Apoptotic(%): 2.4 ± 2.1%
  Necrotic(%): 1.5 ± 0.9%
SMMC7721; SMMC7721, vincristine 0.5 μg/ml, Schisandrin B 20 μg/ml
  Apoptotic + necrotic (%): 2.6 ± 0.4%
SMMC7721; [11]
  apoptosis and necrosis of SMMC7721 cells induced by doxorubicin (in words): significantly enhanced
SMMC7721; Schisandrin B 20 μg/ml with vincristine 0.5 μg/ml
  apoptosis and necrosis of SMMC7721 induced by vincristine (in words): significantly enhanced
MCF7
  Apoptotic + necrotic (%): 1.9 ± 0.1%
MCF7; [11]
  apoptosis and necrosis of MCF7 induced by doxorubicin (in words): significantly enhanced
HL60/adr; HL60/adr, Schisandrin B 10 μg/ml
  RF (reversal folds of vincristine resistance): ~10.5
HL60/adr; HL60/adr, Schisandrin B 20 μg/ml
  RF (reversal folds of vincristine resistance): >42
HL60/adr
  drug sensitivity of HL60/adr toward the anticancer agents (in words): enhanced
